Data reported in ChEMBL document CHEMBL1126516, “Synthesis, biological activity and electrostatic properties of 3-[2-(dimethylamino)ethyl]-5-[(3-amino-1,2,4-thiadiazol-5-yl)methyl]-1H-indole, a novel 5-HT1D receptor agonist” (Bioorg Med Chem Lett, 1993).

Species on record: Oryctolagus cuniculus
Assay: Compound was tested for the contraction of New Zealand white rabbit saphenous vein
Assay type: functional

SMILES | EC50 [nM]
CNS(=O)(=O)Cc1ccc2[nH]cc(CCN(C)C)c2c1 | 631
CN(C)CCc1c[nH]c2ccc(Cc3nc(N)ns3)cc12 | 10
CN(C)CCc1c[nH]c2ccc(Cc3nc(N)no3)cc12 | 501
NCCc1c[nH]c2ccc(O)cc12 [SEROTONIN] | 158
